{
  "source": "patent US6660286B1",
  "about": "“Emulsion vehicle for poorly soluble drugs” (Sonus Pharmaceuticals, Inc., priority 1997, dated 2003)",
  "origin": "cited, not measured here",
  "note": "Read-outs that look alike come from different tables or passages of the source.",
  "data": [
    {"smiles": "CC(=O)O[C@H]1C(=O)[C@@]2(C)[C@H]([C@H](OC(=O)c3ccccc3)[C@]3(O)C[C@H](OC(=O)[C@H](O)[C@@H](NC(=O)c4ccccc4)c4ccccc4)C(C)=C1C3(C)C)[C@]1(OC(C)=O)CO[C@@H]1C[C@@H]2O", "note": "[paclitaxel]", "values": [
      {"measurement": "solubility of paclitaxel", "setting": "30% PVP in water", "result": "≤ 0.3", "unit": "mg/mL"},
      {"measurement": "solubility of paclitaxel", "setting": "35% PEG 400 in water", "result": 0.03, "unit": "mg/mL"},
      {"measurement": "solubility of paclitaxel", "setting": "admixtures of PEG 400 and water containing 50-100% PEG 400", "result": "0.2 to 175", "unit": "mg/mL"}
    ]}
  ]
}
